Experimental findings from patent US8975406B2, “Compound useful for the treatment of degenerative and inflammatory diseases” (Galapagos N.V., priority 2011, dated 2015) are described below.

Format in all cases: biochemical
The target of experiment [1] is T1, Recombinant human JAK1 (Homo sapiens, UniProt P23458).
T1 construct: catalytic domain (amino acids 866-1154; catalog number PV4774); purchased Invitrogen PV4774
In words: JAK1 Ulight-JAK1 peptide assay. To be noted: Ulight-JAK1(tyr1023) peptide, 7 μM ATP. The procedure, abridged: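 TR-FRET assay: recombinant human JAK1 catalytic domain (aa 866-1154, 1 ng) phosphorylates 20 nM Ulight-JAK1(tyr1023) peptide at 7 μM ATP in MOPS pH 6.8 buffer, 1% DMSO, for 60 min at room temperature. Eu-anti-phosphotyrosine detection follows EDTA stop. IC50 comes from 10-point ⅕ dilutions from 20 μM, normalized to 10 μM staurosporine.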

The target in experiment [2] is T2, Recombinant human JAK2 (Homo sapiens, UniProt O60674).
T2 construct: catalytic domain (amino acids 808-1132; catalog number PV4210); GST; purchased Invitrogen PV4210
In words: JAK2 Ulight-JAK1 peptide assay. The settings on record: Ulight-JAK1(tyr1023) peptide, 7.5 μM ATP. The procedure, abridged:
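JAK2 catalytic domain ([…]), 0.0125 mU, with 25 nM Ulight-JAK1(tyr1023) peptide, 7.5 μM ATP, HEPES pH7.0, 60 min at room temperature; stopped with EDTA and Eu-anti-phosphotyrosine, TR-FRET read at 615 nm. Inhibition normalised to vehicle and 10 μM staurosporine; IC50 from 10-point ⅕ dilutions from 20 μM, 1% DMSO.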

Experiment [3] concerns the target T3, Recombinant human JAK3 catalytic domain (Homo sapiens, UniProt P52333).
T3 construct: catalytic domain (amino acids 795-1124; catalog number 08-046); purchased Carna Biosciences 08-046
Kind of experiment: JAK3 inhibition assay. The settings on record: polyGT substrate, 33P-gamma-ATP filter assay, 1 μM ATP. The procedure, abridged: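 Kinase domain aa 795-1124 with polyGT substrate, 1 μM ATP plus ^33P-γ-ATP, pH 7.5 Tris buffer, 1% DMSO; 45 min at 30° C. Filter-bound radioactivity counted, inhibition normalised to vehicle and 10 μM staurosporine. IC50 from 10-point 1/5 dilutions, top concentration usually 20 μM.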

T1 sequence (P23458 866-1154): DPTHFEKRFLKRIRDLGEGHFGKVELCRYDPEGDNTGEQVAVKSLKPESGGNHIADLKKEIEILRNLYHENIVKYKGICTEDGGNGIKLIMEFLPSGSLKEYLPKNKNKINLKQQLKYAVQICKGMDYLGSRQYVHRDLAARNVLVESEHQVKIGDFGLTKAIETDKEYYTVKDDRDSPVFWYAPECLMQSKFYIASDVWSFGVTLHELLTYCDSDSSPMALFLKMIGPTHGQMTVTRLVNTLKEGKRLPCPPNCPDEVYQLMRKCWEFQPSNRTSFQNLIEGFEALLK
T2 sequence (O60674 808-1132): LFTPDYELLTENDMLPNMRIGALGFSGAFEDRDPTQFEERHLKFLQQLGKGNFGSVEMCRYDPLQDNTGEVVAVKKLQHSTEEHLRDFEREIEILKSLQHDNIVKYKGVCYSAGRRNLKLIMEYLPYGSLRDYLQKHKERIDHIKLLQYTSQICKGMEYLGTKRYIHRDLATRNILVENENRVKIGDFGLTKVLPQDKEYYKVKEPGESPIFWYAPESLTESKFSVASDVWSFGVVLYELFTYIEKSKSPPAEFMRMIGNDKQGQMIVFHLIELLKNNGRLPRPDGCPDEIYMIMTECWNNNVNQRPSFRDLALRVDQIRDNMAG
T3 sequence (P52333 795-1124): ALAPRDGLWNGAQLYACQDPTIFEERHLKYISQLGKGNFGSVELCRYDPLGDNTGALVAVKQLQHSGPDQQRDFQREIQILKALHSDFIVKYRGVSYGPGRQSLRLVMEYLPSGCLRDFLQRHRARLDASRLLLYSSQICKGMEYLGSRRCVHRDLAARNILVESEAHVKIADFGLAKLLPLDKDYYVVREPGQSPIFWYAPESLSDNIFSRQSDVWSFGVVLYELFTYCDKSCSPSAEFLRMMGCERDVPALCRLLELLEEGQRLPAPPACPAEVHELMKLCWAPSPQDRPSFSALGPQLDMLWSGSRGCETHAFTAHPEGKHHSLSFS

Regarding `CC(=O)Nc1cc2c(-c3ccc(CC(=O)N4CC(F)(F)C4)cc3)cccn2n1` [Compound 34, N-(4-(4-(2-(3,3-difluoroazetidin-1-yl)-2-oxoethyl)phenyl)pyrazolo[1,5-a]pyridin-2-yl)acetamide], the IC50 in experiment [1] is 0.01 to 100 nM; in experiment [2], 0.01 to 100 nM; in experiment [3], 101 to 500 nM.

In the case of `CC(=O)Nc1cc2c(-c3ccc(CC(=O)N4CCCCC4)cc3)cccn2n1` [Compound 35, N-(4-(4-(2-oxo-2-(piperidin-1-yl)ethyl)phenyl)pyrazolo[1,5-a]pyridin-2-yl)acetamide], the values for the half-maximal inhibitory concentration (IC50) in experiment [1], in experiment [2] and in experiment [3] were 101 to 500 nM, 0.01 to 100 nM and 0.01 to 100 nM, respectively.

Take `CC(=O)Nc1cc2c(-c3ccc(CC(=O)N4CCOCC4)cc3)cccn2n1` [Compound 36, N-(4-(4-(2-morpholino-2-oxoethyl)phenyl)pyrazolo[1,5-a]pyridin-2-yl)acetamide]: the IC50 was in the range of 101 to 500 nM in experiment [1], 0.01 to 100 nM in experiment [2] and 101 to 500 nM in experiment [3].

On to `CC(=O)Nc1cc2c(-c3ccc(CC(=O)N4COCC4(C)C)cc3)cccn2n1` [Compound 38, N-(4-(4-(2-(4,4-dimethyloxazolidin-3-yl)-2-oxoethyl)phenyl)pyrazolo[1,5-a]pyridin-2-yl)acetamide], for which the IC50 in experiment [1] lay in the range of 101 to 500 nM; in experiment [2] it was 0.01 to 100 nM; in experiment [3] it was 501 to 1000 nM.

In the case of `CC(c1ccc(-c2cccn3nc(NC(=O)C4CC4)cc23)cc1)N1CCN(S(C)(=O)=O)CC1` (stereo not drawn) [Compound 43, N-(4-(4-(1-(4-(methylsulfonyl)piperazin-1-yl)ethyl)phenyl)pyrazolo[1,5-a]pyridin-2-yl)cyclopropanecarboxamide], the IC50 in experiment [1], in experiment [2] and in experiment [3] was 0.01 to 100 nM in each case.

Turning to `C[C@@H]1CN(S(C)(=O)=O)CCN1Cc1ccc(-c2cccn3nc(NC(=O)C4CC4)cc23)cc1` [Compound 44, (R)-N-(4-(4-((2-methyl-4-(methylsulfonyl)piperazin-1-yl)methyl)phenyl)pyrazolo[1,5-a]pyridin-2-yl)cyclopropanecarboxamide], the IC50 in experiment [1], in experiment [2] and in experiment [3] was 0.01 to 100 nM in each case.

As for `CC(=O)Nc1cc2c(-c3ccc(C(C)N4CCN(S(C)(=O)=O)CC4)cc3)cccn2n1` (stereo not drawn) [Compound 45, N-(4-(4-(1-(4-(methylsulfonyl)piperazin-1-yl)ethyl)phenyl)pyrazolo[1,5-a]pyridin-2-yl)acetamide], the IC50 in experiment [1] fell in the range of 0.01 to 100 nM; in experiment [2], 0.01 to 100 nM; in experiment [3] it was 101 to 500 nM.

Turning to `C[C@H](c1ccc(-c2cccn3nc(NC(=O)C4CC4)cc23)cc1)N1CCN(S(C)(=O)=O)CC1` [Compound 46, (R)-N-(4-(4-(1-(4-(methylsulfonyl)piperazin-1-yl)ethyl)phenyl)pyrazolo[1,5-a]pyridin-2-yl)cyclopropanecarboxamide], the IC50 in experiment [1], in experiment [2] and in experiment [3] was 0.01 to 100 nM each time.

In the case of `C[C@@H](c1ccc(-c2cccn3nc(NC(=O)C4CC4)cc23)cc1)N1CCN(S(C)(=O)=O)CC1` [Compound 47, (S)-N-(4-(4-(1-(4-(methylsulfonyl)piperazin-1-yl)ethyl)phenyl)pyrazolo[1,5-a]pyridin-2-yl)cyclopropanecarboxamide], the IC50 in experiment [1], in experiment [2] and in experiment [3] was 0.01 to 100 nM each time.

For `O=C(Nc1cc2c(-c3ccc(CN4CCCCC45COC5)cc3)cccn2n1)C1CC1` [Compound 48, N-(4-(4-(2-oxa-5-azaspiro[3.5]nonan-5-ylmethyl)phenyl)pyrazolo[1,5-a]pyridin-2-yl)cyclopropanecarboxamide], the figures for the IC50 in experiment [1], in experiment [2] and in experiment [3] were 0.01 to 100 nM, 101 to 500 nM and 0.01 to 100 nM, respectively.

Turning to `CS(=O)(=O)N1CC[C@@H](Oc2ccc(-c3cccn4nc(NC(=O)C5CC5)cc34)cc2)C1` [Compound 49, (R)-N-(4-(4-(1-(methylsulfonyl)pyrrolidin-3-yloxy)phenyl)pyrazolo[1,5-a]pyridin-2-yl)cyclopropanecarboxamide], the IC50 in experiment [1] is 0.01 to 100 nM; in experiment [2], greater than 1000 nM; in experiment [3], 0.01 to 100 nM.
